Results from article PMC10714400, “Antimicrobial Peptide–Peptoid Hybrids with and without Membrane Disruption” (ACS Infectious Diseases, 2023).
Values after ≈ are worked out from the molar mass of the structure shown. Like-named read-outs stand apart in the source and are kept apart here. Where a SMILES comes first, the peptide text is derived from it. [ ]: non-standard residue; d: D form. Nleu = CC(C)CNCC(=O)O; Nlys = NCCCCNCC(=O)O

Experiments:
[1] = tested on: human red blood cells (hRBC); experiment: Minimum hemolytic concentration (MHC); format: cell-based
Source text: We also measured minimal hemolysis concentrations (MHC) on human red blood cells by serial 2-fold dilution as an indication of toxicity against eukaryotic cells (Table 1).

A. baumannii ATCC19606 = conditions: for MIC A. baumannii ATCC19606, full MH at pH 7.4 / MIC A. baumannii ATCC19606, full MH at pH 8.5: ATCC19606, 4 h
Procedure: (§1) Antimicrobial activity was assayed for all the peptide–peptoids against P. aeruginosa PAO1, K. pneumoniae NCTC418, E. coli W3110, A. baumannii ATCC 19606, methicillin-resistant S. aureus COL (MRSA), and for selected peptides on P. aeruginosa PA14 and the polymyxin-B-resistant derivatives PA14 4.13, PA14 4.18, PA14 2P4, as well as the clinical isolates ZEM-1A and ZEM9A, K. pneumoniae OXA-48, S. aureus Newman, Enterobacter cloacae, Stenotrophomonas maltophilia, Burkholderia cenocepacia, and Staphylococus epidermidis. To determine the Minimal Inhibitory Concentration (MIC), the Broth Microdilution method was used.[72] A colony of bacteria was picked and grown in LB medium overnight at 37 °C.
(§2) To each well was finally added 4 μL of the diluted bacterial suspension (see above), corresponding to approximately 5 × 10^5 CFU. For each test, two columns of the plate were kept for sterility control (medium only), growth control (medium with bacterial inoculum, no compound). The positive control, Polymyxin B (starting with a concentration of 16 μg/mL) in MH medium with bacterial inocula, was introduced in the two lines of the plate. The plates were incubated at 37 °C for ca. 18 h under static conditions. Next, 15 μL of 3-(4,5-dimethylthiazol-2-yl)-2,5-diphenyltetrazolium bromide (MTT)[73] (1 mg/mL in sterilized MilliQ deionized water) were added to each well, and the plates were incubated for 20–30 min at room temperature. The minimal inhibitory concentration (MIC) was defined as the lowest concentration of the compound that inhibits the visible growth of the tested bacteria (yellow) with the unaided eye.

E. coli W3110 = tested on: E. coli W3110
Procedure: as §1, §2

S. aureus COL (MRSA) = tested on: S. aureus COL (MRSA)
Procedure: as §1, §2

P. aeruginosa PAO1 = conditions: for MIC P. aeruginosa PAO1, full MH at pH 7.4 / MIC P. aeruginosa PAO1, full MH at pH 8.5: PAO1, 4 h
Procedure: as §1, §2

PA14 2P4 (pmrB) = conditions: CSV; […] MH at pH 8.5
Procedure: as §1, §2

K. pneumoniae NCTC418 = tested on: K. pneumoniae NCTC418
Procedure: as §1, §2

PA14 4.18 (pmrB) = conditions: CSV; […] MH at pH 8.5
Procedure: as §1, §2

PA14 4.13 (phoQ) = conditions: […] MH at pH 8.5; for MIC P. aeruginosa PA14 4.13, […] MH at pH 8.5: CSV
Procedure: as §1, §2

S. aureus Newman = conditions: Table S3; […] MH at pH 8.5
Procedure: as §1
as §2, with “The plates were incubated at 37 °C for ca. 18 h under static conditions.” left out

P. aeruginosa PA14 = conditions: Table S3; […] MH at pH 8.5, 16-20 hours at 37 °C
Procedure: as §1
as §2, with “The plates were incubated at 37 °C for ca. 18 h under static conditions.” left out

[2] = Circular dichroism, α-helical content; format: physicochemical; conditions: 0.1 mg/mL; for CD %α with 5 mM DPC: 10 mM phosphate buffer pH 7.4, 5 mM DPC; for CD %α with 20% TFE: 10 mM phosphate buffer pH 7.4, 20% TFE

CC(C)C[C@H](NC(=O)[C@H](CC(C)C)NC(=O)[C@H](CCCCN)NC(=O)[C@@H](N)CCCCN)C(=O)N[C@@H](CCCCN)C(=O)N[C@@H](CC(C)C)C(=O)N[C@@H](CC(C)C)C(=O)N[C@@H](CCCCN)C(=O)N(CC(=O)N(CC(=O)N(CC(N)=O)CC(C)C)CC(C)C)CC(C)C [EB3] (H-KKLLKLLK[Nleu][Nleu][Nleu]-NH2)
Hemolysis [1]: none of them showed any measurable hemolysis | MHC [1]: >2000 µg/mL | MIC A. baumannii ATCC19606, full MH at pH 7.4 (A. baumannii ATCC19606; pH 7.4): >32 ug/mL | MIC A. baumannii ATCC19606, full MH at pH 8.5 (A. baumannii ATCC19606; pH 8.5): >32 ug/mL | MIC A. baumannii ATCC19606 […] 7.4 (A. baumannii ATCC19606; Table S2, […] MH, pH 7.4): 32 µg/mL (≈ 24.2 µM) | MIC A. baumannii ATCC19606 […] 8.5 (A. baumannii ATCC19606; Table S2, […] MH, pH 8.5): 16 µg/mL (≈ 12.1 µM) | MIC A. baumannii ATCC19606 Full MH 7.4 (A. baumannii ATCC19606; Table S2, full MH, pH 7.4): > 32 µg/mL | MIC A. baumannii ATCC19606 Full MH 8.5 (A. baumannii ATCC19606; Table S2, full MH, pH 8.5): > 32 µg/mL | MIC E. coli W3110, […] MH at pH 7.4 (E. coli W3110; CSV): 4 ug/mL | MIC E. coli W3110, […] MH at pH 8.5 (E. coli W3110; CSV): 3 ug/mL | MIC E. coli W3110, full MH at pH 7.4 (E. coli W3110; CSV): >32 ug/mL | MIC E. coli W3110 […] 7.4 (E. coli W3110; Table S2, […] MH, pH 7.4): 4 µg/mL (≈ 3.03 µM) | MIC E. coli W3110 […] 8.5 (E. coli W3110; Table S2, […] MH, pH 8.5): 2 to 4 µg/mL | MIC E. coli W3110 Full MH 7.4 (E. coli W3110; Table S2, full MH, pH 7.4): > 32 µg/mL | MIC E. coli W3110 Full MH 8.5 (E. coli W3110; Table S2, full MH, pH 8.5): 16 µg/mL (≈ 12.1 µM) | MIC S. aureus COL (MRSA), full MH at pH 7.4 (S. aureus COL (MRSA); COL, 4 h, pH 7.4): >32 ug/mL | MIC S. aureus COL (MRSA), full MH at pH 8.5 (S. aureus COL (MRSA); COL, 4 h, pH 8.5): 32 ug/mL | MIC S. aureus COL (MRSA) […] 7.4 (S. aureus COL (MRSA); Table S2, […] MH, pH 7.4): 32 µg/mL (≈ 24.2 µM) | MIC S. aureus COL (MRSA) […] 8.5 (S. aureus COL (MRSA); Table S2, […] MH, pH 8.5): 8 µg/mL (≈ 6.05 µM) | MIC S. aureus COL (MRSA) Full MH 7.4 (S. aureus COL (MRSA); Table S2, full MH, pH 7.4): > 32 µg/mL | MIC S. aureus COL (MRSA) Full MH 8.5 (S. aureus COL (MRSA); Table S2, full MH, pH 8.5): 32 µg/mL (≈ 24.2 µM) | MIC P. aeruginosa PAO1, full MH at pH 7.4 (P. aeruginosa PAO1; pH 7.4): >32 ug/mL | MIC P. aeruginosa PAO1, full MH at pH 8.5 (P. aeruginosa PAO1; pH 8.5): 16 ug/mL | MIC P. aeruginosa PAO1 […] 7.4 (P. aeruginosa PAO1; Table S2, […] MH, pH 7.4): 16 µg/mL (≈ 12.1 µM) | MIC P. aeruginosa PAO1 […] 8.5 (P. aeruginosa PAO1; Table S2, […] MH, pH 8.5): 4 µg/mL (≈ 3.03 µM) | MIC P. aeruginosa PAO1 Full MH 7.4 (P. aeruginosa PAO1; Table S2, full MH, pH 7.4): > 32 µg/mL | MIC P. aeruginosa PAO1 Full MH 8.5 (P. aeruginosa PAO1; Table S2, full MH, pH 8.5): 16 µg/mL (≈ 12.1 µM) | MIC P. aeruginosa PA14 2P4, […] MH at pH 8.5 (PA14 2P4 (pmrB)): 16 ug/mL | MIC K. pneumoniae NCTC418, full MH at pH 7.4 (K. pneumoniae NCTC418; NCTC418, 4 h, pH 7.4): >32 ug/mL | MIC K. pneumoniae NCTC418 […] 7.4 (K. pneumoniae NCTC418; Table S2, […] MH, pH 7.4): > 32 µg/mL | MIC K. pneumoniae NCTC418 […] 8.5 (K. pneumoniae NCTC418; Table S2, […] MH, pH 8.5): 16 µg/mL (≈ 12.1 µM) | MIC K. pneumoniae NCTC418 Full MH 7.4 (K. pneumoniae NCTC418; Table S2, full MH, pH 7.4): > 32 µg/mL | MIC K. pneumoniae NCTC418 Full MH 8.5 (K. pneumoniae NCTC418; Table S2, full MH, pH 8.5): 32 µg/mL (≈ 24.2 µM) | MIC P. aeruginosa PA14 4.18, […] MH at pH 8.5 (PA14 4.18 (pmrB)): 8 ug/mL | MIC P. aeruginosa PA14 4.13, […] MH at pH 8.5 (PA14 4.13 (phoQ)): 6 ug/mL | MIC P. aeruginosa PA14 4.13 (PA14 4.13 (phoQ); Table S3): 4 to 8 µg/mL | MIC S. aureus Newman (S. aureus Newman): 4 µg/mL (≈ 3.03 µM) | MIC P. aeruginosa PA14 (P. aeruginosa PA14): 4 µg/mL (≈ 3.03 µM) | CD %α with 5 mM DPC ([2]; DichroWeb, Contin-LL): 13% | CD %α with 20% TFE ([2]; DichroWeb, Contin-LL): 15% | CD %α with 5 mM DPC ([2]; Table S2): 13% | CD %α with 20% TFE ([2]; Table S2): 15%

CC(C)C[C@H](NC(=O)[C@H](CC(C)C)NC(=O)[C@H](CC(C)C)NC(=O)CN(CCCCN)C(=O)[C@H](CC(C)C)NC(=O)[C@H](CC(C)C)NC(=O)CN(CCCCN)C(=O)[C@H](CC(C)C)NC(=O)[C@H](CC(C)C)NC(=O)CN(CCCCN)C(=O)CNCCCCN)C(N)=O [EB7, kkLLkLLkLLL] (H-[Nlys][Nlys]LL[Nlys]LL[Nlys]LLL-NH2)
Hemolysis [1]: none of them showed any measurable hemolysis | MHC [1]: >2000 µg/mL | MIC A. baumannii ATCC19606, full MH at pH 7.4 (A. baumannii ATCC19606; pH 7.4): >32 ug/mL | MIC A. baumannii ATCC19606, full MH at pH 8.5 (A. baumannii ATCC19606; pH 8.5): 4 ug/mL | MIC A. baumannii ATCC19606 Full (A. baumannii ATCC19606; ATCC19606, pH 7.4): >32 µg/mL | MIC E. coli W3110, […] MH at pH 7.4 (E. coli W3110; CSV): 4 ug/mL | MIC E. coli W3110, […] MH at pH 8.5 (E. coli W3110; CSV): 1 ug/mL | MIC E. coli W3110, full MH at pH 7.4 (E. coli W3110; CSV): 16 ug/mL | MIC E. coli W3110, full MH at pH 8.5 (E. coli W3110; CSV, full MH at pH 8.5): 4 ug/mL | MIC E. coli W3110 […] (E. coli W3110; diluted MH ([…] MH, pH 8.5) per Table 1 footnote b, 16–20 h at 37 °C): 4 µg/mL (≈ 3.03 µM) | MIC E. coli W3110 Full (E. coli W3110; full MH, pH 7.4, 16–20 h at 37 °C): 16 µg/mL (≈ 12.1 µM) | MIC S. aureus COL (MRSA), full MH at pH 7.4 (S. aureus COL (MRSA); COL, 4 h, pH 7.4): >32 ug/mL | MIC S. aureus COL (MRSA) Full MH 8.5 (S. aureus COL (MRSA); COL, 4 h, pH 8.5): 4 to 8 µg/mL | MIC S. aureus COL (MRSA), full MH at pH 8.5 (S. aureus COL (MRSA); COL, 4 h, pH 8.5): 6 ug/mL | MIC S. aureus COL (MRSA) Full (S. aureus COL (MRSA); COL, pH 7.4): >32 µg/mL | MIC P. aeruginosa PAO1, full MH at pH 7.4 (P. aeruginosa PAO1; pH 7.4): 32 ug/mL | MIC P. aeruginosa PAO1, full MH at pH 8.5 (P. aeruginosa PAO1; pH 8.5): 8 ug/mL | MIC P. aeruginosa PA14 2P4, […] MH at pH 8.5 (PA14 2P4 (pmrB)): 16 ug/mL | MIC K. pneumoniae NCTC418, full MH at pH 7.4 (K. pneumoniae NCTC418; NCTC418, 4 h, pH 7.4): >32 ug/mL | MIC K. pneumoniae NCTC418, full MH at pH 8.5 (K. pneumoniae NCTC418; NCTC418, 4 h, pH 8.5): 4 ug/mL | MIC P. aeruginosa PA14 4.18, […] MH at pH 8.5 (PA14 4.18 (pmrB)): 8 ug/mL | MIC P. aeruginosa PA14 4.13, […] MH at pH 8.5 (PA14 4.13 (phoQ)): 4 ug/mL
